Results taken from ChEMBL document CHEMBL1201862, “PubChem BioAssay data set” (2004).
Active and inactive are the calls of the source.

Tests used:
[1] = Luminescence Cell-Based Dose Retest to Confirm Inhibitors of Cancer Stem Cells. [Related pubchem assays (depositor defined):AID2717, AID2721]; assay type: functional; settings: Homo sapiens
CAAX prenyl protease 2 = biological target: T1, CAAX prenyl protease 2 (Saccharomyces cerevisiae S288c, UniProt Q03530); assay type: biochemical
T1 sequence (Q03530 whole entry): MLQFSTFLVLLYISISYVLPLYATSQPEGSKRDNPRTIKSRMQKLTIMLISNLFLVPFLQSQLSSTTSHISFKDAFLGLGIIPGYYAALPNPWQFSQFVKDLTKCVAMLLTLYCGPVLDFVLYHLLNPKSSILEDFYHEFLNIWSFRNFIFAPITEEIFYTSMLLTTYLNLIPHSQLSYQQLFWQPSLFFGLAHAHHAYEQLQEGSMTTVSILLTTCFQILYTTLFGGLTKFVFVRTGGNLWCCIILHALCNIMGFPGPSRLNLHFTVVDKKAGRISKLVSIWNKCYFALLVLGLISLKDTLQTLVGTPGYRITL

[2] = biological target: T2, Neuropeptide Y receptor type 1 (Homo sapiens, UniProt P25929); assay: NPY-Y1 receptor antagonist potency, dose response, cell-based (AID 1277); assay type: functional
T2 sequence (P25929 whole entry): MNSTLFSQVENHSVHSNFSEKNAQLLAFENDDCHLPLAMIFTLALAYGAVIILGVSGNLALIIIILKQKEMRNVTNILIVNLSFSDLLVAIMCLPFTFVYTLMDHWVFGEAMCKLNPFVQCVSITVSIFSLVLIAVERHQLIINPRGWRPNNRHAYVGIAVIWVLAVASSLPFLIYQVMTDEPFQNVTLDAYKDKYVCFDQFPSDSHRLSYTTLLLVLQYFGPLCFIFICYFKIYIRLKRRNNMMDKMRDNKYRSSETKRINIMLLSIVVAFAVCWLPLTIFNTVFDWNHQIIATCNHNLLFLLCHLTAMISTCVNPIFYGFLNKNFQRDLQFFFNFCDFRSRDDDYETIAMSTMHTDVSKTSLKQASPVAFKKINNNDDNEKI

[3] = biological target: T3, Neuropeptide Y receptor type 2 (Homo sapiens, UniProt P49146); assay: NPY-Y2 antagonist potency, selectivity check, dose response, counter-screen for NPY-Y1 antagonist project, cell-based (AID 1278); assay type: functional
T3 sequence (P49146 whole entry): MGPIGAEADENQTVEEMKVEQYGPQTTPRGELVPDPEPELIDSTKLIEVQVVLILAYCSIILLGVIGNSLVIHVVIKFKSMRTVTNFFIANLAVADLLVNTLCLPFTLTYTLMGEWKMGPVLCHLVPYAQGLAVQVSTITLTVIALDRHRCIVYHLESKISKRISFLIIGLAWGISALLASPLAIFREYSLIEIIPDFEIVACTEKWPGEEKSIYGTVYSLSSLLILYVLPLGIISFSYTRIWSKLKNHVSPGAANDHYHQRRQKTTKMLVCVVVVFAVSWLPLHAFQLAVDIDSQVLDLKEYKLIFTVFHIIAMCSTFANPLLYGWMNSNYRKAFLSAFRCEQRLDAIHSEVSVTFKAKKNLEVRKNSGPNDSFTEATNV

Trypsin = Trypsin (Sus scrofa, UniProt P00761); assay: porcine trypsin inhibitors, dose response, selectivity assay for Rce1 protease inhibitor project, biochemical, quenched peptide fluorescence, cherry-pick (AID 488789)
Sequence of Trypsin (P00761 whole entry): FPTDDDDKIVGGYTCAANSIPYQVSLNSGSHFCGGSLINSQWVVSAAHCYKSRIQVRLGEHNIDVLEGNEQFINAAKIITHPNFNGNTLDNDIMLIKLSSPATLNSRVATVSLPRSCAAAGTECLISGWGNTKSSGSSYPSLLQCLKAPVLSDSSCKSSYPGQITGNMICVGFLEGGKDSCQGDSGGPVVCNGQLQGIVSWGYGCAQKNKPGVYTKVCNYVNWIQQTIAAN

[4] = biological target: Peroxisome proliferator-activated receptor gamma/Nuclear receptor coactivator 2 (Homo sapiens, UniProt P37231); assay type: functional;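 also: agonist potency for raising coactivator recruitment to the receptor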
Sequence of Peroxisome proliferator-activated receptor gamma/Nuclear receptor coactivator 2 (P37231 whole entry): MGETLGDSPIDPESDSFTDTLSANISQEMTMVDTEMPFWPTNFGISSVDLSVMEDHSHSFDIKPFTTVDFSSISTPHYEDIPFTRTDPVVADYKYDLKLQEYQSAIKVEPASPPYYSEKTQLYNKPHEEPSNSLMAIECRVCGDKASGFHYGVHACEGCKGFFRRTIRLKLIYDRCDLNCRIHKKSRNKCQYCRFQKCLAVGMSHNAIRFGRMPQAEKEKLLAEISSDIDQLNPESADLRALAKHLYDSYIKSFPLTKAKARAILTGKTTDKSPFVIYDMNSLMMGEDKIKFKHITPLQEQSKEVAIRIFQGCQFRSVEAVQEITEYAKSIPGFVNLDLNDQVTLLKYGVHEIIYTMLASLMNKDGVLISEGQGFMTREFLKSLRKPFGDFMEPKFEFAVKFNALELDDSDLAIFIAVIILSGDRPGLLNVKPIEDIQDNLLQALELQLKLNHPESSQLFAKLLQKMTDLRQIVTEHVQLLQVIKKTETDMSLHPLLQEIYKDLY
Sequence of Peroxisome proliferator-activated receptor gamma/Nuclear receptor coactivator 2 (Q15596 whole entry, further chain): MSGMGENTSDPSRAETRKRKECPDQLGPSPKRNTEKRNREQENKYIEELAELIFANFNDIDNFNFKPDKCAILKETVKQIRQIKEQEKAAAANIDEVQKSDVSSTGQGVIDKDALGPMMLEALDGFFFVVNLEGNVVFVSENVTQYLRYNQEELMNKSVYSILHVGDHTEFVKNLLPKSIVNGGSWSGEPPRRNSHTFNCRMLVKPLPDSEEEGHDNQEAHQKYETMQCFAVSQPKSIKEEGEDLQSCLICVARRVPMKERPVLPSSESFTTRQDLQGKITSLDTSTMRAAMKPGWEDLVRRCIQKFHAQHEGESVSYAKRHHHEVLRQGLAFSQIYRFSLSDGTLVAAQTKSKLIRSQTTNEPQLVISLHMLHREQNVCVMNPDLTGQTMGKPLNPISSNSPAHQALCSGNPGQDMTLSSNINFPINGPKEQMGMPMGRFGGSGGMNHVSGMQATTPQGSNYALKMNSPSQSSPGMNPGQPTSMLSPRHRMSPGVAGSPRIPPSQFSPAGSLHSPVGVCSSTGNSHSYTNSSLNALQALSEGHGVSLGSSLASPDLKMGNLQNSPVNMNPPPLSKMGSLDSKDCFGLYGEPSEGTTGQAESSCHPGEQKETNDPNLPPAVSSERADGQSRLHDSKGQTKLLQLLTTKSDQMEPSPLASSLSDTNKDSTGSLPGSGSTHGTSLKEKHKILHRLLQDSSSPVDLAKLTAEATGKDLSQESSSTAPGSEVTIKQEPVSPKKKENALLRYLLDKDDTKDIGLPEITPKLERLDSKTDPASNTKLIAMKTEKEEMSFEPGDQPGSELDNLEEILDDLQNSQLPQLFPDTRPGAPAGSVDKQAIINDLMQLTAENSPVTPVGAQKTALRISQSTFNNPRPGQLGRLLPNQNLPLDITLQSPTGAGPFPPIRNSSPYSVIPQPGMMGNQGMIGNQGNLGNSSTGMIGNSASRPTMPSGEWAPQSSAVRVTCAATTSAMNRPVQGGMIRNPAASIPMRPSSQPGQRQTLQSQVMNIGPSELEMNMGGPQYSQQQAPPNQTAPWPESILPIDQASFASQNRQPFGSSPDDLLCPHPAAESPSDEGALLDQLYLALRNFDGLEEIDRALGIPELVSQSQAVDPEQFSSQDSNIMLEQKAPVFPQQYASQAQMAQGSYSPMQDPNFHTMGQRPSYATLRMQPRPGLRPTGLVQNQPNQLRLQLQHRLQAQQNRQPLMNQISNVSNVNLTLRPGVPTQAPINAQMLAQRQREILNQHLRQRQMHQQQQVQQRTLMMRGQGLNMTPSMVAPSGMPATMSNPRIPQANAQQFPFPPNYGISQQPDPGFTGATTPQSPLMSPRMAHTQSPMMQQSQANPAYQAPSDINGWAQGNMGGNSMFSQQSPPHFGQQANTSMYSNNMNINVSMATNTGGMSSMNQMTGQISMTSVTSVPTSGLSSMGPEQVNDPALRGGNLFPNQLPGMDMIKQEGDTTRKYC

[5] = biological target: Peroxisome proliferator-activated receptor gamma/Nuclear receptor coactivator 1 (Homo sapiens, UniProt P37231); assay type: functional;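 also: agonist potency as compounds enhance coactivator SRC-1 recruitment to PPARgamma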
[6] = biological target: Peroxisome proliferator-activated receptor gamma/Nuclear receptor coactivator 3 (Homo sapiens, UniProt P37231); assay type: functional;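 also: agonist potency for raising coactivator recruitment to the receptor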
[7] = biological target: T4, Replicative DNA helicase DnaB (Mycobacterium tuberculosis, UniProt P9WMR3); assay: DnaB intein splicing inhibitors, dose response, biochemical, cell-free fluorescence (AID 449749); assay type: functional
T4 sequence (P9WMR3 whole entry): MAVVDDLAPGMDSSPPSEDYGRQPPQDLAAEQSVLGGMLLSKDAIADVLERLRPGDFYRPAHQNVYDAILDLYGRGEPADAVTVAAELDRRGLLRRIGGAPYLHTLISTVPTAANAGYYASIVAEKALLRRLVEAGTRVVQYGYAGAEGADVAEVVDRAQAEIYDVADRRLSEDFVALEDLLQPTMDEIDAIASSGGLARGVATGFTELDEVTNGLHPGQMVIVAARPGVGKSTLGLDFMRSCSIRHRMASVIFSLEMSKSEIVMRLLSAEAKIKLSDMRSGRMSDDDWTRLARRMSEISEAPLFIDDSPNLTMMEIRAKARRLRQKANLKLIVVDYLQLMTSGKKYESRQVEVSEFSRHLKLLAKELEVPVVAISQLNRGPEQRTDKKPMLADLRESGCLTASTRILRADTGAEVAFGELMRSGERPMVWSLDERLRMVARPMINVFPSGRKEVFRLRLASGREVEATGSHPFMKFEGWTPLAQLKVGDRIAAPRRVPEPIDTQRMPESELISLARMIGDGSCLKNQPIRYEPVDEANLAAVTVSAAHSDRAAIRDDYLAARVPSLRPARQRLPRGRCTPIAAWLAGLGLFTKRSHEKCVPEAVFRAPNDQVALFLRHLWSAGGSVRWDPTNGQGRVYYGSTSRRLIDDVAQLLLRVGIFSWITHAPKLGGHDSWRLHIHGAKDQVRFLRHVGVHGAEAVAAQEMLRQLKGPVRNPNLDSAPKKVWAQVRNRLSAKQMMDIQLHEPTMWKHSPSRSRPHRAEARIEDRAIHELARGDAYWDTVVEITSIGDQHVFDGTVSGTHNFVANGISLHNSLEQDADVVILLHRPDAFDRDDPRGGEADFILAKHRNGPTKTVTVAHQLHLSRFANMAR

Protein RecA = biological target: T5, Protein RecA (Mycobacterium tuberculosis, UniProt P9WHJ3); assay: Fluorescence Cell-Free Homogeneous Dose Retest to Identify Inhibitors of RecA-Intein Splicing Activity. [Related pubchem assays (depositor defined):AID2097, AID2223, AID489010, AID492950]; assay type: functional
T5 sequence (P9WHJ3 whole entry): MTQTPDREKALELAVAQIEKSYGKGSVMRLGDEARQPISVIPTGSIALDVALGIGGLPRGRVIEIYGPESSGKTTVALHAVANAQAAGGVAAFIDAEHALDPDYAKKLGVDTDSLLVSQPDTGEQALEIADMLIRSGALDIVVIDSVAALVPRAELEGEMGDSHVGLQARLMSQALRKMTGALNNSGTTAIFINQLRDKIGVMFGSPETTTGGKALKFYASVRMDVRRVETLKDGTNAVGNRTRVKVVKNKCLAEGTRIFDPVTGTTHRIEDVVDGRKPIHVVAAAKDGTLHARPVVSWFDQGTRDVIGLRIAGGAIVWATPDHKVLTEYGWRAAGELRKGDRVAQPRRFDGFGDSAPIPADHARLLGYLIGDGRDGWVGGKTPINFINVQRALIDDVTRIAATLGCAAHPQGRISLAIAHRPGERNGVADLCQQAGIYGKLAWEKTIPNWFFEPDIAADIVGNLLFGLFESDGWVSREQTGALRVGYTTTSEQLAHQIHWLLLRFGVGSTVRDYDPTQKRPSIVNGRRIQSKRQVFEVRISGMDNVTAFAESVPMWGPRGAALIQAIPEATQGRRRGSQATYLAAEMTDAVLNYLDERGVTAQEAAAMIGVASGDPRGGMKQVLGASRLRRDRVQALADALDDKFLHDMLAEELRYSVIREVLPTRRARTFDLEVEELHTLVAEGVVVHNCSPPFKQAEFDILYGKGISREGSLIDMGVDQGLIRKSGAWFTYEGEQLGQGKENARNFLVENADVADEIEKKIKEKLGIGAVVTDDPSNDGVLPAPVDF

[8] = biological target: Potassium voltage-gated channel subfamily KQT member 2 (Rattus norvegicus, UniProt O88943, W236L); assay: KCNQ2 channel potentiators, dose response, mechanism study for KCNQ2 potentiator project, cell-based, automated electrophysiology (AID 2603); assay type: functional
Sequence of Potassium voltage-gated channel subfamily KQT member 2 (O88943 whole entry W236L): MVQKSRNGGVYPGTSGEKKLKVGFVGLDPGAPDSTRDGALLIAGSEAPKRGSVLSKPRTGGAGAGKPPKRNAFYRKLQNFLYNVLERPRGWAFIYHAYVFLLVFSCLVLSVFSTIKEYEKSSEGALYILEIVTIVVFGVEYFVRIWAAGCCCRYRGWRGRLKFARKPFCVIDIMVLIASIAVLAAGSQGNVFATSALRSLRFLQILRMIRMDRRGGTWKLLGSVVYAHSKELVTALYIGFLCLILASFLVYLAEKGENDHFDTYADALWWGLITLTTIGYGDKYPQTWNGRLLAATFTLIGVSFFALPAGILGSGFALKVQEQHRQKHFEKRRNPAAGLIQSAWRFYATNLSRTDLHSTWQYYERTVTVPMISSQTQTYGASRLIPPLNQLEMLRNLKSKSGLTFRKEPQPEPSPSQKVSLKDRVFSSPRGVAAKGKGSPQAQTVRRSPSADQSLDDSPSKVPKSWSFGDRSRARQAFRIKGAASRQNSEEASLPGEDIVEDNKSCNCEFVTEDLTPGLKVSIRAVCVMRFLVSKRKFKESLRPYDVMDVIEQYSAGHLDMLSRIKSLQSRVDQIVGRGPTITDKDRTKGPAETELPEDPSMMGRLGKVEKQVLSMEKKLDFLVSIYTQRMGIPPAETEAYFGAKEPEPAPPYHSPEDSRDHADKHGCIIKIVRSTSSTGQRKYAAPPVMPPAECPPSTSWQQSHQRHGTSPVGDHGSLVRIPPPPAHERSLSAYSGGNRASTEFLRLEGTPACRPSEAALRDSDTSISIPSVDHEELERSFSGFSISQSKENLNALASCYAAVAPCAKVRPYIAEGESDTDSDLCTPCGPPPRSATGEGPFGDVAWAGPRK

Genome polyprotein = Genome polyprotein (dengue virus type 2, UniProt P29990); assay: Dengue-2 NS5 methyltransferase inhibitors, primary screen, biochemical, confirmation dose response (AID 588689); assay type: functional
Sequence of Genome polyprotein (P29990 2492-3391 limits assumed): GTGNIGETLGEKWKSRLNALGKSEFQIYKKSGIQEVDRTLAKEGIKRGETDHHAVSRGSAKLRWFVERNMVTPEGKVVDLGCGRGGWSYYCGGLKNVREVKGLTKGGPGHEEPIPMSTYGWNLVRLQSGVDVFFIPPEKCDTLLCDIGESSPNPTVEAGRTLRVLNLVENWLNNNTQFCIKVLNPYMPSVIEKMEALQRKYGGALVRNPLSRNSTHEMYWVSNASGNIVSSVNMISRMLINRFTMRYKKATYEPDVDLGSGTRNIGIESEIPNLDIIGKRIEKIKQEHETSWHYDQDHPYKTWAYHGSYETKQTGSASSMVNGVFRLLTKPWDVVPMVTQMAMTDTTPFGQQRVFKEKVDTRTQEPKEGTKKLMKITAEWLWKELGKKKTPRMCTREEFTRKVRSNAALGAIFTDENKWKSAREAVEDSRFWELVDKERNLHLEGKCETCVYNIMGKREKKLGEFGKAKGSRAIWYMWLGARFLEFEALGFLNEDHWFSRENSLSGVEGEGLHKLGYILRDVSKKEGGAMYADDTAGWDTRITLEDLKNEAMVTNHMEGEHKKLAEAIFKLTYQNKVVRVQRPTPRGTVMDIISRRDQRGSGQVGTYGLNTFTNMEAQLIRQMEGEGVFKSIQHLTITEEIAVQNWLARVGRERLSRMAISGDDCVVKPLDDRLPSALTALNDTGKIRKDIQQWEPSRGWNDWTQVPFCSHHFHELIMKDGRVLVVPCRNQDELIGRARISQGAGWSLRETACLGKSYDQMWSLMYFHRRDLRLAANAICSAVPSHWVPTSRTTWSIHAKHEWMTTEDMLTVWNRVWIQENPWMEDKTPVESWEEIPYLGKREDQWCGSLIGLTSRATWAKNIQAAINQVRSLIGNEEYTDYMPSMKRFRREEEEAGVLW

[9] = biological target: Glyceraldehyde-3-phosphate dehydrogenase (Homo sapiens, UniProt P04406)
Sequence of Glyceraldehyde-3-phosphate dehydrogenase (P04406 whole entry): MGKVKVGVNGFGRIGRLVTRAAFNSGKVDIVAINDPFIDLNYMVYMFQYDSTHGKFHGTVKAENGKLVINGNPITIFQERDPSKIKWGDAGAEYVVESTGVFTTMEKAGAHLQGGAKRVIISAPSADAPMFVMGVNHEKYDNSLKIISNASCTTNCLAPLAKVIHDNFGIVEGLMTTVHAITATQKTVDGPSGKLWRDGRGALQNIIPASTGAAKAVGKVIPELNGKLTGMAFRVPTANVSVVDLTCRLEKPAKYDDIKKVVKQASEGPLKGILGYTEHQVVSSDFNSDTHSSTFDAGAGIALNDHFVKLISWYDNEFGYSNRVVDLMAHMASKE

SMILES: Cc1nc(N2CCCCC2)c2c(C)c(C(=O)Nc3ccccc3C(F)(F)F)sc2n1
- AC50 [1]: 2.18 µM (active)
- AC50 (CAAX prenyl protease 2): 13.4 µM (active)
- IC50 [2]: 7.1 µM (active)
- IC50 [3]: 6.66 µM (active)
- AC50 (Trypsin): > 100 µM (inactive)

SMILES: O=c1cc(Cn2ccnc2)c2cc3c(cc2o1)CCC3
- EC50 [4]: > 79.4 µM (not active)
- EC50 [5]: > 79.4 µM (not active)
- EC50 [6]: > 79.4 µM (not active)

SMILES: Cc1oc2cc([N+](=O)[O-])c(O)c([N+](=O)[O-])c2c1C(=O)c1ccc(Cl)cc1
- AC50 [7]: 4.12 µM (active)
- EC50 (Protein RecA): 10.4 µM (active)
- EC50 [8]: 555 µM (active)
- IC50 (Genome polyprotein): 61.9 µM (active)

SMILES: COc1cccc(N2C(=O)C(Cl)=C(N(C)C)C2=O)c1
- IC50 [9]: > 50 µM (inconclusive)
